Experimental data published in PMC10570366, “Molecular mechanism of decision-making in glycosaminoglycan biosynthesis” (Nature Communications, 2023).

Tests used:
Format in all cases: biochemical
[1] = target: T1, CHSY3/CHPF (Homo sapiens, UniProt Q70JA7); assay: HPLC and MS of glycopeptide product; conditions: acceptor TetraP-BETA; 5 mM Mn2+; pH 7.5; 30 °C
T1 construct: soluble lumenal regions, His6 tags, obligate heterodimer co-expressed in Expi293F
T1 sequence (Q70JA7 29-882 limits assumed): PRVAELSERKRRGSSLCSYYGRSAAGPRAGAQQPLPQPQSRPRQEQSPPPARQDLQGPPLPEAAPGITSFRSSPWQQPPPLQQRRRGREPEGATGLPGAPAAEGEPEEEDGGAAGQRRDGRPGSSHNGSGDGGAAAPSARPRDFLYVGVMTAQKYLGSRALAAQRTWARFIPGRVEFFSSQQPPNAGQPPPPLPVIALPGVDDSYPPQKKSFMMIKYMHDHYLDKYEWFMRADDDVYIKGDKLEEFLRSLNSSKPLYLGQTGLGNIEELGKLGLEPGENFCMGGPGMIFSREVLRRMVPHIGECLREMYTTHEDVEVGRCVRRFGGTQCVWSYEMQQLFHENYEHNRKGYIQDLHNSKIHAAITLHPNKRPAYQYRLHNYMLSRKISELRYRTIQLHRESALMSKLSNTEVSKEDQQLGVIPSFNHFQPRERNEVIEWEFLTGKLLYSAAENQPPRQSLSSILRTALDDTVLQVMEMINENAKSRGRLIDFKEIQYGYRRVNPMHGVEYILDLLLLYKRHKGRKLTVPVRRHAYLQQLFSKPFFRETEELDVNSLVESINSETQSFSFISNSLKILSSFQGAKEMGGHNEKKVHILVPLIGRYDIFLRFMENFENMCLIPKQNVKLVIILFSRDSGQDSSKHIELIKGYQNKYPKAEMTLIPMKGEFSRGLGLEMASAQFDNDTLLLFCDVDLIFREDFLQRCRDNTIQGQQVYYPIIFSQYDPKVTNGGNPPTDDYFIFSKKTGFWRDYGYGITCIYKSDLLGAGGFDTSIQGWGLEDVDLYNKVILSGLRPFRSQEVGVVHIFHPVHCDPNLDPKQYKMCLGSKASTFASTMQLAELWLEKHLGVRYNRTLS
T1 sequence (Q8IZ52 35-775 partner): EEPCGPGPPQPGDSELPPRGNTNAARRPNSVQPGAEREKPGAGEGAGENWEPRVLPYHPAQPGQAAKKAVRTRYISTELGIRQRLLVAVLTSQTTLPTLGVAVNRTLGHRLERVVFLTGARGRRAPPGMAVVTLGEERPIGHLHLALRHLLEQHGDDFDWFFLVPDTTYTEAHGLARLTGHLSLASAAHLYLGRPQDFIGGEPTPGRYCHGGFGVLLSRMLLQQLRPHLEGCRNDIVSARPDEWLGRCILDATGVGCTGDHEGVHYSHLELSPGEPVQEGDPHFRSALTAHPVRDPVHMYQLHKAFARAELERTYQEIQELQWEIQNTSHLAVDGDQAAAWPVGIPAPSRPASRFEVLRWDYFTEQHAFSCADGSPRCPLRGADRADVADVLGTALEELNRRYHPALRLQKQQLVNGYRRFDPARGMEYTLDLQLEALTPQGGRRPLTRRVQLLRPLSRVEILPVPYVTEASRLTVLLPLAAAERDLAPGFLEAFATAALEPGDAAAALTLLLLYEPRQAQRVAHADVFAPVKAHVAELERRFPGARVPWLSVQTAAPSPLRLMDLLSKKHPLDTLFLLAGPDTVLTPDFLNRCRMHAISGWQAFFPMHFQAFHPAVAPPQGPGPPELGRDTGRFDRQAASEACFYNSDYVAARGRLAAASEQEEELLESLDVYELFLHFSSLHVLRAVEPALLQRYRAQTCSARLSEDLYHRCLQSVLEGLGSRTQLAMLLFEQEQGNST

[2] = target: T2, MBP-CSGALNACT1 (Homo sapiens, UniProt Q8TDX6); assay: UDP-Glo; conditions: acceptor TetraP-peptides; 5 mM Mn2+; pH 7.5
T2 sequence (Q8TDX6 36-532 limits assumed): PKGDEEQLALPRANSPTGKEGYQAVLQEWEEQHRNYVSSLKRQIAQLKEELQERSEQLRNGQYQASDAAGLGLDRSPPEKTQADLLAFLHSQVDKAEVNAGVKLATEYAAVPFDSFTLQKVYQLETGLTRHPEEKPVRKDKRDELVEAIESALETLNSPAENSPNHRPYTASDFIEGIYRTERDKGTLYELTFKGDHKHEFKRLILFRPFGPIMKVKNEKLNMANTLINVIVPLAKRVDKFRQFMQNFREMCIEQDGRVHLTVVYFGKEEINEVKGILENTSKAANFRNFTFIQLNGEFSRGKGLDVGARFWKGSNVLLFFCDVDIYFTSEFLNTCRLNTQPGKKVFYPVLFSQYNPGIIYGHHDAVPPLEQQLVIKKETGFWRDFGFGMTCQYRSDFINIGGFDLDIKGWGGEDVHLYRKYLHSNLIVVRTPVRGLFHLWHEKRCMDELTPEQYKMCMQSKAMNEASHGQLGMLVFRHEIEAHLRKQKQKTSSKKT

[3] = target: T3, EXT1/EXT2 (Homo sapiens, UniProt Q16394+Q93063); assay: HPLC and MS of glycopeptide product; conditions: acceptor GlcNAc-TetraP-BETA; Mn2+; pH 7.5
T3 construct: soluble lumenal regions, FLAG-EXT1/His-EXT2 heterodimer co-expressed in Expi293F
T3 sequence (Q16394 29-746 limits assumed): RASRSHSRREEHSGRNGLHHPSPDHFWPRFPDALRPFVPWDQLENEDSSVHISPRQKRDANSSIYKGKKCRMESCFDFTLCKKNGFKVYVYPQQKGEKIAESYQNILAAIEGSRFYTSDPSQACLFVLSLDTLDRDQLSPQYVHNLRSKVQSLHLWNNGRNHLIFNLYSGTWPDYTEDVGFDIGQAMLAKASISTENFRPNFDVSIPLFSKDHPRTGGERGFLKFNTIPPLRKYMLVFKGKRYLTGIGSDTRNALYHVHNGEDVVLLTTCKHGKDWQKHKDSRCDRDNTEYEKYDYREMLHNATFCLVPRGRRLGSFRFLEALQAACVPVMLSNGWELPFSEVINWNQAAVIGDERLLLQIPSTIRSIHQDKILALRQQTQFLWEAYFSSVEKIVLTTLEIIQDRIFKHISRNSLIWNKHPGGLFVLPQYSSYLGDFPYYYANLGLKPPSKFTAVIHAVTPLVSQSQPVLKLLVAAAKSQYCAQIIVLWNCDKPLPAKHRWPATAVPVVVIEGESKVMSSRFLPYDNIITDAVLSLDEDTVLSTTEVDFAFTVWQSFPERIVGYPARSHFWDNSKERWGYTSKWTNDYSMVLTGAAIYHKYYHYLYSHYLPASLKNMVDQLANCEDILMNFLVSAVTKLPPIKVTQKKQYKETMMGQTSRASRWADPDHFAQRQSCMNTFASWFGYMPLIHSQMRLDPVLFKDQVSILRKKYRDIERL
T3 sequence (Q93063 47-718 limits assumed): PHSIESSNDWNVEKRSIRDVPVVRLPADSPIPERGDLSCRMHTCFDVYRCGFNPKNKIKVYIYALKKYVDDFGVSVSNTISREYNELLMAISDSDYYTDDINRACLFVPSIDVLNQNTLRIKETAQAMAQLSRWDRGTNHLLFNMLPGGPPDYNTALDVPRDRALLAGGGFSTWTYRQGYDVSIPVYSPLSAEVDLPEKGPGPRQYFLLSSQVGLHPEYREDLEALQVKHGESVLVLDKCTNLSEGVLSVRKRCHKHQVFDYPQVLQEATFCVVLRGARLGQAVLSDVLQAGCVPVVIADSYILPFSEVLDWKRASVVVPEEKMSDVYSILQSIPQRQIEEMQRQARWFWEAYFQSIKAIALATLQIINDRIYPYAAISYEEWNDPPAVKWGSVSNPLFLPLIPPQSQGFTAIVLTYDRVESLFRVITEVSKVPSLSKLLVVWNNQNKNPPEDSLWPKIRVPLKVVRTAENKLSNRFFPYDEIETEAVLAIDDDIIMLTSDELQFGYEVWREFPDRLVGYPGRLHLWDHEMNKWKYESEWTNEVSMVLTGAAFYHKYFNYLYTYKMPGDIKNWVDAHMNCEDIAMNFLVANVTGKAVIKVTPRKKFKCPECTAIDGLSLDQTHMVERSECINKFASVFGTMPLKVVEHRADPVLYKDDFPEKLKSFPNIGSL

[4] = target: T4, B3GAT3 (Homo sapiens, UniProt O94766); assay: one-pot enzymatic synthesis, HPLC and MS; conditions: acceptor Gal-Gal-Xyl-BKN; 25 mM Mn2+; pH 7.5; 30 °C
T4 sequence (O94766 29-335 limits assumed): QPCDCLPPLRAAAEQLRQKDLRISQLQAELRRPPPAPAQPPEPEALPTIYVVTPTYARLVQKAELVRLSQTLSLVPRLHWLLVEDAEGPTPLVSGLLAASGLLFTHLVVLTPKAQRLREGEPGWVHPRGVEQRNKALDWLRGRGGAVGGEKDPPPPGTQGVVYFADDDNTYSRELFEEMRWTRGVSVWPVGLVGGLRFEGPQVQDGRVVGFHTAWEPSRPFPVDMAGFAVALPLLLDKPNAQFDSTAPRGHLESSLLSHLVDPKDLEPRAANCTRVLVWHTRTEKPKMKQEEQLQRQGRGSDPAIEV

CC(=O)N[C@H]1[C@@H](OP(=O)(O)OP(=O)(O)OC[C@H]2O[C@@H](n3ccc(=O)[nH]c3=O)[C@H](O)[C@@H]2O)O[C@H](CO)[C@H](O)[C@@H]1O [UDP-GalNAc]
HPLC and MS of glycopeptide product [1]: CHSY3/CHPF was able to transfer GalNAc onto TetraP-BETA
UDP-Glo [2]: A similar behaviour was confirmed for CSGALNACT1

O=C(O)[C@H]1O[C@H](OP(=O)(O)OP(=O)(O)OC[C@H]2O[C@@H](n3ccc(=O)[nH]c3=O)[C@H](O)[C@@H]2O)[C@H](O)[C@@H](O)[C@@H]1O [UDP-GlcA]
HPLC and MS of glycopeptide product [3]: both enzymes are able to catalyse the addition of a sixth sugar, forming GlcA-GlcNAc-TetraP-BETA
one-pot enzymatic synthesis, HPLC and MS [4]: all four GTs but without FAM20B gave the unphosphorylated linker glycopeptide, GlcA-Gal-Gal-Xyl-BKN (Tetra-BKN)
